Test results published in PubChem BioAssay (NCI).
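These data come from cells grown in 96-well plates and exposed to compound for 48 hours at five concentrations. Definition used: TGI = concentration required for complete inhibition of growth.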

Columns and labels:
Assay in all cases: DTP human tumour cell line panel, 48 h
[1] = test system: 786-0 renal
[2] = test system: A498 renal
[3] = test system: A549 NSCLC
[4] = test system: ACHN renal
[5] = test system: BT-549 breast
[6] = test system: CAKI-1 renal
[7] = test system: CCRF-CEM leukemia
[8] = test system: COLO 205 colon
[9] = test system: DU-145 prostate
[10] = test system: EKVX NSCLC
[11] = test system: HCC-2998 colon
[12] = test system: HCT-116 colon
[13] = test system: HCT-15 colon
[14] = test system: HL-60(TB) leukemia
[15] = test system: HOP-62 NSCLC
[16] = test system: HOP-92 NSCLC
[17] = test system: HS 578T breast
[18] = test system: HT29 colon
[19] = test system: IGROV1 ovarian
[20] = test system: K-562 leukemia
[21] = test system: KM12 colon
[22] = test system: LOX IMVI melanoma
[23] = test system: M14 melanoma
[24] = test system: MALME-3M melanoma
[25] = test system: MCF7 breast
[26] = test system: MDA-MB-231 breast
[27] = test system: MDA-MB-435
[28] = test system: MDA-N
[29] = test system: MOLT-4 leukemia
[30] = test system: NCI-H226 lung
[31] = test system: NCI-H23 lung
[32] = test system: NCI-H460 lung
[33] = test system: NCI-H522 lung
[34] = test system: NCI/ADR-RES ovarian
[35] = test system: OVCAR-3 ovarian
[36] = test system: OVCAR-4 ovarian
[37] = test system: OVCAR-5 ovarian
[38] = test system: OVCAR-8 ovarian
[39] = test system: PC-3 prostate
[40] = test system: RPMI-8226 leukemia
[41] = test system: RXF 393 renal
[42] = test system: SF-268 CNS
[43] = test system: SF-295 CNS
[44] = test system: SF-539 CNS
[45] = test system: SK-MEL-2 melanoma
[46] = test system: SK-MEL-28 melanoma
[47] = test system: SK-MEL-5 melanoma
[48] = test system: SK-OV-3 ovarian
[49] = test system: SN12C renal
[50] = test system: SNB-19 CNS
[51] = test system: SNB-75 CNS
[52] = test system: SR leukemia
[53] = test system: SW-620 colon
[54] = test system: T-47D breast
[55] = test system: TK-10 renal
[56] = test system: U251 CNS
[57] = test system: UACC-257 melanoma
[58] = test system: UACC-62 melanoma
[59] = test system: UO-31 renal

For O=C1C=CC(=O)c2c(O)c(N3CCC[C@H]3CO)c(Cl)c(O)c21, the TGI [1] was 3.64 µM, the TGI [2] was > 10 µM and the TGI [3] was > 10 µM. The TGI [4] was 4.53 µM, the TGI [5] was > 10 µM and the TGI [6] was 3.57 µM. The TGI [7] was 0.757 µM, the TGI [8] was 3.22 µM and the TGI [9] was > 6.32 µM. The TGI [10] was > 10 µM, the TGI [11] was > 6.61 µM and the TGI [12] was 3.3 µM. The TGI [13] was 4.15 µM, the TGI [14] was 0.249 µM and the TGI [15] was > 10 µM. For the same compound, the TGI [16] was 3.13 µM, the TGI [17] was > 8.27 µM and the TGI [18] was > 10 µM. For the same compound, the TGI [19] was > 7.96 µM, the TGI [20] was 1.87 µM and the TGI [21] was > 6.06 µM. It also gave a TGI [22] of 4.34 µM, a TGI [23] of 3.61 µM and a TGI [24] of 3.21 µM. The TGI [25] was 3.66 µM, the TGI [26] was 6.48 µM and the TGI [27] was 3.45 µM. The TGI [28] was 3.51 µM, the TGI [29] was 1.95 µM and the TGI [30] was > 10 µM. For the same compound, the TGI [31] was 4.61 µM, the TGI [32] was > 10 µM and the TGI [33] was 0.939 µM. For the same compound, the TGI [34] was 4.06 µM, the TGI [35] was > 7.45 µM and the TGI [36] was 3.93 µM. For the same compound, the TGI [37] was > 10 µM, the TGI [38] was > 6.11 µM and the TGI [39] was > 10 µM. For the same compound, the TGI [40] was 1.09 µM, the TGI [41] was 3.46 µM and the TGI [42] was > 10 µM. For the same compound, the TGI [43] was > 10 µM, the TGI [44] was > 10 µM and the TGI [45] was 5.53 µM. For the same compound, the TGI [46] was 2.23 µM, the TGI [47] was 3.11 µM and the TGI [48] was > 10 µM. The TGI [49] was 3.2 µM, the TGI [50] was > 10 µM and the TGI [51] was > 10 µM. For the same compound, the TGI [52] was 1.4 µM, the TGI [53] was 3.51 µM and the TGI [54] was 4.57 µM. For the same compound, the TGI [55] was 5.57 µM, the TGI [56] was > 10 µM and the TGI [57] was 1.92 µM. The TGI [58] was 4.88 µM and the TGI [59] was > 5.84 µM.
In the case of C/C=C(/C)C(=O)OC1CC(C)[C@H]2CC(=O)C(C)=C2CC1C(C)(C)OC(C)=O (some centres undefined), the TGI [1] is reported as > 100 µM, the TGI [2] is reported as 41.1 µM and the TGI [3] is reported as > 100 µM. For the same compound, the TGI [4] was > 100 µM, the TGI [5] was 85.4 µM and the TGI [6] was > 100 µM. The TGI [7] was 65.8 µM, the TGI [8] was 43.8 µM and the TGI [9] was > 100 µM. The TGI [10] was > 100 µM, the TGI [11] was 72.1 µM and the TGI [12] was 40.7 µM. The TGI [13] was > 100 µM, the TGI [14] was 49.8 µM and the TGI [15] was 95 µM. For the same compound, the TGI [16] was 78 µM, the TGI [17] was > 100 µM and the TGI [18] was > 100 µM. The TGI [19] was > 100 µM, the TGI [20] was > 100 µM and the TGI [21] was 91.6 µM. For the same compound, the TGI [22] was 36.2 µM, the TGI [23] was 63.8 µM and the TGI [24] was 54 µM. For the same compound, the TGI [25] was > 100 µM, the TGI [26] was > 100 µM and the TGI [27] was 68.6 µM. The TGI [28] was > 100 µM, the TGI [29] was 76.8 µM and the TGI [30] was > 100 µM. For the same compound, the TGI [31] was > 100 µM, the TGI [32] was 42.8 µM and the TGI [33] was 53 µM. For the same compound, the TGI [34] was 71.7 µM, the TGI [35] was 45.4 µM and the TGI [36] was 68 µM. The TGI [37] was > 100 µM, the TGI [38] was > 100 µM and the TGI [39] was > 100 µM. For the same compound, the TGI [40] was 60.8 µM, the TGI [41] was 54.6 µM and the TGI [42] was > 100 µM. The TGI [43] was > 100 µM, the TGI [44] was 41 µM and the TGI [45] was 27 µM. For the same compound, the TGI [46] was > 100 µM, the TGI [47] was 29.7 µM and the TGI [49] was > 100 µM. For the same compound, the TGI [50] was > 100 µM, the TGI [51] was > 100 µM and the TGI [52] was 78.9 µM. For the same compound, the TGI [53] was > 100 µM, the TGI [54] was 46.2 µM and the TGI [55] was > 100 µM. The TGI [56] was > 100 µM, the TGI [57] was 51.6 µM and the TGI [58] was 48.6 µM. The TGI [59] was 83.9 µM.
O=C(/C=C/C(=O)N1CCCC1)N1CCCC1 was tested, and the TGI [1] was > 100 µM, the TGI [2] was > 100 µM and the TGI [3] was > 100 µM. The TGI [4] was > 100 µM, the TGI [5] was > 100 µM and the TGI [6] was > 100 µM. For the same compound, the TGI [7] was > 100 µM, the TGI [8] was > 100 µM and the TGI [9] was > 100 µM. The TGI [10] was > 100 µM, the TGI [11] was > 100 µM and the TGI [12] was > 100 µM. The TGI [13] was > 100 µM, the TGI [14] was > 100 µM and the TGI [15] was > 100 µM. For the same compound, the TGI [16] was > 100 µM, the TGI [17] was > 100 µM and the TGI [18] was > 100 µM. For the same compound, the TGI [19] was > 100 µM, the TGI [20] was > 100 µM and the TGI [21] was > 100 µM. The TGI [22] was > 100 µM, the TGI [23] was > 100 µM and the TGI [24] was > 100 µM. The TGI [25] was > 100 µM, the TGI [26] was > 100 µM and the TGI [27] was > 100 µM. The TGI [28] was > 100 µM, the TGI [29] was > 100 µM and the TGI [31] was > 100 µM. The TGI [32] was > 100 µM, the TGI [33] was > 100 µM and the TGI [34] was > 100 µM. For the same compound, the TGI [35] was > 100 µM, the TGI [36] was > 100 µM and the TGI [37] was > 100 µM. The TGI [38] was > 100 µM, the TGI [39] was > 100 µM and the TGI [40] was > 100 µM. For the same compound, the TGI [41] was > 100 µM, the TGI [42] was > 100 µM and the TGI [43] was > 100 µM. For the same compound, the TGI [44] was > 100 µM, the TGI [45] was > 100 µM and the TGI [46] was > 100 µM. The TGI [47] was > 100 µM, the TGI [48] was > 100 µM and the TGI [49] was > 100 µM. The TGI [50] was > 100 µM, the TGI [52] was > 100 µM and the TGI [53] was > 100 µM. The TGI [54] was > 100 µM, the TGI [55] was > 100 µM and the TGI [56] was > 100 µM. The TGI [57] was > 100 µM, the TGI [58] was > 100 µM and the TGI [59] was > 100 µM.
